This note sets out measurements from US4466970A, “Dioxocyclobutene compounds” (Smith Kline & French Laboratories Limited, priority 1982, dated 1984).

For this assay, the system named is histamine H2 -receptors. The experiment in a line: Heidenhain pouch dog: inhibition of histamine-stimulated acid secretion. It is filed as in vivo. The conditions noted are these: intravenous administration; dose levels adjusted to produce similar peak responses.

With `Nc1c(NCCCOc2cc(CN3CCCCC3)ccn2)c(=O)c1=O` [Example 1, 1-[3-[4-(Piperidinomethyl)pyrid-2-yloxy]prop-1-ylamino]-2-aminocyclobut-1-ene-3,4-dione], the “duration of action relative to cimetidine” value is listed as “significant increase in duration of action”.
